Data set [1] has as its target T1, MMP-3CD (stromelysin-1 catalytic domain) (Homo sapiens, UniProt P08254).
T1 construct: MMP-3CD (stromelysin-1 catalytic domain); made in house; host or cells: Escherichia coli
Kind of data set: MMP-3CD inhibition, thiopeptolide substrate hydrolysis. In kind it is biochemical. Particulars: average where multiple samples assayed. Here is the method:
(§1) The compounds were evaluated in order to determine their respective IC50 values, i.e., the micromolar concentration of compound required to achieve a 50% inhibition of the hydrolytic activity of the respective enzymes.
(§2) Experiments were carried out with the full-length (“FL”) and/or catalytic domains (“CD”) of the proteinases. […] IC50 values were determined using a thiopeptolide substrate, Ac-Pro-Leu-Gly-thioester-Leu-Leu-Gly-OEt (Ye Q.-Z., Johnson L. L., Hupe D. J., and Baragi V., “Purification and Characterization of the Human Stromelysin Catalytic Domain Expressed in Escherichia coli,” Biochemistry, 1992;31:11231-11235; Ye Q.-Z., Johnson L. L., Yu A. E., and Hupe D., “Reconstructed 19 kDa Catalytic Domain of Gelatinase A IAAP,” Biochemistry, 1995;34:4702-4708.)
(§3) The tested MMPs are available to those skilled in the art. For example, MMP-1 can be obtained from Washington University School of Medicine, St. Louis, Mo. MMP-7 can be obtained in accordance with the known procedure set forth by Ye Q. Z., Johnson L. L., and Baragi V., “Gene Syntheses and Expression in E. coli for PUMP, a Human Matrix Metalloproteinase,” Biochem. and Biophys. Res. Comm., 1992;186:143-149. MMP-13 can be obtained in accordance with the known procedure set forth by Freije J. M. P. et al., “Molecular Cloning and Expression of Collagenase-3, a Novel Human Matrix Metalloproteinase Produced by Breast Carcinomas,” J. Bio. Chem., 1994;269:16766-16773. MMP-13CD can also be expressed from a synthetic gene and purified from Escherichia coli cell culture according to a previously described method (Ye Q.-Z., Johnson L. L., and Baragi V., “Gene Synthesis and Expression in E. coli for PUMP, a Human Matrix Metalloproteinase,” Biochemical and Biophysical Research Communications, 1992;186:143-149). Hydrolysis of the thiopeptolide substrate Ac-Pro-Leu-Gly-thioester-Leu-Leu-Gly-OEt (Bachem) was used as the primary screen to determine IC50 values for MMP inhibitors. A 100 μL reaction contains 1 mM 5,5′-dithiobis(2-nitrobenzoic acid) (DTNB), 100 μM substrate, 0.1% BRIJ® 35, PROTEIN GRADE®, Detergent, 10% solution, Sigma, St. Louis, Mo. [polyoxyethyleneglycol dodecyl ether; polyoxyethylene (23) lauryl ether], enzyme, and inhibitor in the appropriate reaction buffer. Activated full-length enzymes are assayed at 5 nM, Stromelysin Catalytic Domain (SCD) at 10 nM, and Gelatinase A Catalytic Domain (GaCD) at 1 nM. Inhibitors are screened from 100 μM to 1 nM. Full-length enzymes (e.g., MMP-1 and MMP-7) are assayed in 50 mM 4-(2-[…])-piperazine-1-ethane sulfonic acid (HEPES), 10 mM CaCl2, pH 7.0; SCD in 50 mM 2-morpholinoethane sulfonic acid monohydrate (MES), 10 mM CaCl2, pH 6.0; and GaCD in 50 mM 3-morpholtriopropane sulfonic acid (MOPS), 10 mM CaCl2, 10 μM ZnCl2, pH 7.0. The change in absorbance at 405 nanometers is monitored on a ThermoMax microplate reader at room temperature continuously for 20 minutes.
(§4) The number in parenthesis indicates the number of samples assayed.

In data set [2] the target is T2, MMP-14CD (membrane-type MMP-1 catalytic domain) (Homo sapiens, UniProt P50281).
T2 construct: MMP-14CD (membrane-type MMP-1 catalytic domain)
Nature of the data set: MMP-14CD inhibition, thiopeptolide substrate hydrolysis. In kind it is biochemical. Particulars: average where multiple samples assayed. The procedure: as §1, §2, §3, §4

Data set [3] deals with MMP-9FL (gelatinase B full-length enzyme) (Homo sapiens, UniProt P14780). Kind of data set: MMP-9FL inhibition, thiopeptolide substrate hydrolysis. The following applies: average where multiple samples assayed. In kind it is biochemical. Here is the method: as §1, §2, §3, §4
Data set [4] deals with MMP-2CD (gelatinase A catalytic domain) (Homo sapiens, UniProt P08253). Nature of the data set: MMP-2CD inhibition, thiopeptolide substrate hydrolysis. Particulars: average where multiple samples assayed. In kind it is biochemical. The procedure: as §1, §2, §3, §4
Data set [5] has as its target T3, MMP-1FL (collagenase-1 full-length enzyme) (Homo sapiens, UniProt P03956).
T3 construct: purchased Washington University School of Medicine, St. Louis, Mo
T3 sequence (P03956 100-469): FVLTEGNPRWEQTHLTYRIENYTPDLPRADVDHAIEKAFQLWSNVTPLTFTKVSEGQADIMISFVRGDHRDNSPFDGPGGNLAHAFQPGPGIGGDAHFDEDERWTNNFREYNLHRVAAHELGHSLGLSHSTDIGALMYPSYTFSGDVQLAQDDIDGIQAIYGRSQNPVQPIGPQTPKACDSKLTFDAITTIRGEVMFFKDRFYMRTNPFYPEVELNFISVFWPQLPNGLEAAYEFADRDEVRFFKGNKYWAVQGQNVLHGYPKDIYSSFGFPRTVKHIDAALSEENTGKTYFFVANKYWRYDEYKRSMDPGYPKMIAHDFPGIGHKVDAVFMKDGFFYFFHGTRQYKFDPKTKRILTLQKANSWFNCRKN
Kind of data set: MMP-1FL inhibition, thiopeptolide substrate hydrolysis. In kind it is biochemical. Particulars: average where multiple samples assayed. Here is the method:
as §1, §2, §3, §4

In data set [6] the target is T4, MMP-13CD (collagenase-3 catalytic domain) (Homo sapiens, UniProt P45452).
T4 construct: MMP-13CD (collagenase-3 catalytic domain); made in house; host or cells: Escherichia coli
Kind of data set: MMP-13CD inhibition, thiopeptolide substrate hydrolysis. In kind it is biochemical. The following applies: average where multiple samples assayed. Here is the method: as §1, §2, §3, §4

Data set [7] addresses T5, MMP-7FL (matrilysin full-length enzyme) (Homo sapiens, UniProt P09237).
T5 construct: made in house; host or cells: E. coli
T5 sequence (P09237 95-267): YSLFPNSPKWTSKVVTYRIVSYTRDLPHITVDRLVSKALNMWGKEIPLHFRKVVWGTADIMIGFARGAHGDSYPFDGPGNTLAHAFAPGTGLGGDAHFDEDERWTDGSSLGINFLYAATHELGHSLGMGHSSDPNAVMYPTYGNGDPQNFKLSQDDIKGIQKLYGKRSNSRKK
Kind of data set: MMP-7FL inhibition, thiopeptolide substrate hydrolysis. In kind it is biochemical. The following applies: average where multiple samples assayed. Here is the method:
as §1, §2, §3, §4

For data set [8], the target named is T6, MMP-2FL (gelatinase A full-length enzyme) (Homo sapiens, UniProt P08253).
T6 sequence (P08253 110-660): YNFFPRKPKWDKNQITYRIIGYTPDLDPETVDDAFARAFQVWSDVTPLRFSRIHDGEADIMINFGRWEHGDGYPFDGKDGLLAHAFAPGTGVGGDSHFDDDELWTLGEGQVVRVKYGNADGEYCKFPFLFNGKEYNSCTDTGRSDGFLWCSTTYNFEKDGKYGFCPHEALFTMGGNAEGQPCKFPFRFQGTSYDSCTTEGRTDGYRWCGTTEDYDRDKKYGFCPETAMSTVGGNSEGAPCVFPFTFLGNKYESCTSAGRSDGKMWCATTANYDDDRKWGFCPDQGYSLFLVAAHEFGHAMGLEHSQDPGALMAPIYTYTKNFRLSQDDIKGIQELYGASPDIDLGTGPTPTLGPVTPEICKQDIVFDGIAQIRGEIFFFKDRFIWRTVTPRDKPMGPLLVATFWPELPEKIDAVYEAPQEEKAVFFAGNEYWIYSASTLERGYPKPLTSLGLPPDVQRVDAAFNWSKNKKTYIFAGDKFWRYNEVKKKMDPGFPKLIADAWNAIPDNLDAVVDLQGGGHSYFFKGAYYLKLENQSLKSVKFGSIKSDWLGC
Nature of the data set: MMP-2FL inhibition, thiopeptolide substrate hydrolysis. Particulars: average where multiple samples assayed. In kind it is biochemical. Here is the method:
as §1, §2, §3, §4

What is called IC50 is the concentration at which inhibition is half-maximal. One may read the melting point as the temperature of the solid-liquid transition.

MMP-2CD (gelatinase A catalytic domain), sequence (P08253 with tags, fused parts or gaps DEL220-393): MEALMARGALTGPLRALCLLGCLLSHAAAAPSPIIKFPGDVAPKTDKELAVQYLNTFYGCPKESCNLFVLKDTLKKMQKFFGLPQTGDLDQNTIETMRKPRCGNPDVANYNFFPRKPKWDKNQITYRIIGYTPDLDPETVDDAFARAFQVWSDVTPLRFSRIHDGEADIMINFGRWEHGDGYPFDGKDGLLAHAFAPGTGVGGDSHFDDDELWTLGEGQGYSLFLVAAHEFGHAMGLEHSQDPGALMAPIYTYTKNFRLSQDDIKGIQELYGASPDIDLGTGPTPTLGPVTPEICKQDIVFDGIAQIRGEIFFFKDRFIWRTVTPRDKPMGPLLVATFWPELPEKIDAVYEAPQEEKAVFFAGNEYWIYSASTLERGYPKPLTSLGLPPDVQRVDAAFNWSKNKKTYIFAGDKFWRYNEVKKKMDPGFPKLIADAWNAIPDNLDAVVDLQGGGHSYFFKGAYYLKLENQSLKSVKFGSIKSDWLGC
MMP-9FL (gelatinase B full-length enzyme), sequence (P14780 107-707 limits assumed, species assumed): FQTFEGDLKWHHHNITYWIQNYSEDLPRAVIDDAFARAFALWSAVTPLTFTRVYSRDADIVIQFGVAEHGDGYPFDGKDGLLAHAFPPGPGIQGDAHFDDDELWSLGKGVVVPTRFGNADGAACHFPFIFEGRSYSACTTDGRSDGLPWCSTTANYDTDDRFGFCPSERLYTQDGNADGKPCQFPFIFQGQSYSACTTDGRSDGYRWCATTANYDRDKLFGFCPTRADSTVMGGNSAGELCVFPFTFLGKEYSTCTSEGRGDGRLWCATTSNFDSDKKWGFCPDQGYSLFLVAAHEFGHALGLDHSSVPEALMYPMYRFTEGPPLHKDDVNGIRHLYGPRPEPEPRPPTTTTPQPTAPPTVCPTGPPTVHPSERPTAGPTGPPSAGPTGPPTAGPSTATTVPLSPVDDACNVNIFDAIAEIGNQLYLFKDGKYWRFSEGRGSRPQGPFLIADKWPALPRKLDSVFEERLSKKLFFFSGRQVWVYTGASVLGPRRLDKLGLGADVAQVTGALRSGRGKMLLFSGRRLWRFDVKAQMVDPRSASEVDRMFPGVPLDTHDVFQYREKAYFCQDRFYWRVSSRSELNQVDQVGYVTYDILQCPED
T1 sequence (P08254 100-272 limits assumed): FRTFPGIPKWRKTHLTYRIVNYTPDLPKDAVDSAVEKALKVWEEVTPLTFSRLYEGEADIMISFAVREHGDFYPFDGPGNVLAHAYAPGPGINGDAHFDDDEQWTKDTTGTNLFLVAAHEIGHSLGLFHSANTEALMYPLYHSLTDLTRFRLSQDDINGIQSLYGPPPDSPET

With `O=C(O)C1(NS(=O)(=O)c2ccc3c(c2)oc2ccccc23)CCCCC1` [Example 27, 1-(Dibenzofuran-3-sulfonylamino)-cyclohexanecarboxylic acid], the melting point was in the range of 239 to 243 °C. Further, in data set [1], the IC50 came out at 9.25 nM. The compound also showed an IC50 in data set [2] of 26.5 nM. Further, the IC50 in [3] came to 3700 nM. The compound also came in with an IC50 in data set [4] of 2.7 nM. Moreover, the IC50 in data set [5] worked out at 1750 nM. In addition, half-maximal inhibition in data set [6] (IC50) required 230 nM. In addition, the IC50 in data set [7] is 4250 nM. This compound also showed an IC50 in data set [8] of 23 nM.

Turning to `O=C(NO)C1(NS(=O)(=O)c2ccc3c(c2)oc2ccccc23)CCCCC1` [Example 28, 1-(Dibenzofuran-3-sulfonylamino)-cyclohexanecarboxylic acid hydroxyamide], the melting point lay in the range of 184 to 186 °C. 15.5 nM corresponded to half-maximal inhibition in data set [1] (IC50). In [2], this compound yielded an IC50 of 3.9 nM. This compound yielded an IC50 in data set [3] of 135 nM. This compound also yielded a 50% inhibitory concentration (IC50) in data set [4] of 1.7 nM. Besides, the midpoint of inhibition in data set [5], the IC50, lay at 295 nM. Besides, inhibition in data set [6] was half-maximal at 49 nM (IC50). The same compound gave an IC50 in data set [7] of 4050 nM. For the same compound, the IC50 in [8] was 4.5 nM.

With `CC(C)(NS(=O)(=O)c1ccc2c(c1)oc1ccccc12)C(=O)O` [Example 29, 2-(Dibenzofuran-3-sulfonylamino)-2-methyl-propionic acid], the melting point lay within 220 to 224 °C. The compound further gave an IC50 in [1] of 8.35 nM. In addition, half-maximal inhibition in data set [2] (IC50) was put at 22.5 nM. Half-maximal inhibition in data set [3] (IC50) was put at 11500 nM. In addition, in data set [4], the IC50 came to 2.65 nM. Further, the midpoint of inhibition in data set [5], the IC50, lay at 8250 nM. The compound further displayed an IC50 in data set [6] of 450 nM. The compound further returned an IC50 in data set [7] of 34000 nM. The same compound yielded an IC50 in data set [8] of 19.8 nM.

Compound `CC(C)(NS(=O)(=O)c1ccc2c(c1)oc1ccccc12)C(=O)NO` [Example 30, 2-(Dibenzofuran-3-sulfonylamino)-N-hydroxy-2-methyl-propionamide] returned a melting point of 168 to 169 °C. The compound also had an IC50 in [1] of 83.5 nM. The IC50 in data set [2] turned out to be 13.5 nM. This compound also had an IC50 in [3] of 860 nM. Half-maximal inhibition in data set [4] (IC50) was put at 4.3 nM. In data set [5], the IC50 is 905 nM. Moreover, the IC50 in data set [6] is 105 nM. In [7], this compound had an IC50 of 100000 nM. The compound also yielded an IC50 in data set [8] of 4.75 nM.

With `O=C(NO)C1(NS(=O)(=O)c2ccc3c(c2)oc2ccccc23)CCOCC1` [Example 31, 4-(Dibenzofuran-3-sulfonylamino)-tetrahydro-pyran-4-carboxylic acid hydroxyamide], the melting point lay within 160 to 162 °C. The compound also gave an IC50 in [1] of 14.7 nM. In addition, the IC50 in [2] worked out at 5.75 nM. Also, in data set [3], the IC50 amounted to 250 nM. In addition, in data set [4], the IC50 is 2.3 nM. In data set [5], this compound showed an IC50 of 380 nM. Moreover, the IC50 in data set [6] was 48 nM. This compound came in with an IC50 in data set [7] of 3000 nM. In [8], this compound gave an IC50 of 5.25 nM.

With `O=C(NO)C1(NS(=O)(=O)c2ccc3oc4cc(Br)ccc4c3c2)CCCC1` [Example 32, 1-(7-Bromo-dibenzofuran-2-sulfonylamino)-cyclopentane carboxylic acid hydroxamide], the IC50 in data set [1] is 35 nM; in [2], 340 nM; in data set [3], 13000 nM; in data set [4], 82.7 nM; in [5], 5750 nM; in data set [6] it was 165 nM. Besides, the IC50 in [7] was determined as 350 nM; in [8] it was 205 nM.

For `CC(C)(NS(=O)(=O)c1ccc2oc3cc(Cl)ccc3c2c1)C(=O)NO` [Example 33, 2-(7-Chloro-dibenzofuran-2 sulfonylamino)-N-hydroxy-2-methyl-propionamide], the IC50 in [1] stood at 43 nM; in data set [2] it was 300 nM; in data set [3], 15000 nM; in data set [4], 81 nM; in data set [5], 3050 nM; in data set [6], 110 nM. Besides, the IC50 worked out at 920 nM in data set [7] and 125 nM in data set [8].

These data come from US6677355B1, “Hydroxamic acid compounds useful as matrix metalloproteinase inhibitors” (Warner-Lambert Company, priority 1999, dated 2004).
